We go through 28 compounds from US7759337B2, “Phthalazine compounds and methods of use” (Amgen Inc., priority 2005, dated 2010).

This assay concerns production of TNF by monocytes activated with bacterial lipopolysaccharide (LPS). Kind of assay: Lipopolysaccharide-activated monocyte TNF production assay. It is filed as cell-based. Conditions: Homo sapiens; whole blood monocyte assay (LPS induced TNF release). The essentials: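 Adherent human PBMC-derived monocytes preincubated 60 min with nine two-fold compound dilutions, then stimulated with E. coli K532 LPS (30 ng/mL in the added medium) for 4 h at 37 °C. Supernatant TNF measured by sandwich ELISA; IC50 is the compound concentration halving TNF production, from second-order polynomial fits.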

As usually defined, the IC50 is the concentration needed to halve the response being measured. The compound `Cc1ccc(C(N)=O)cc1-c1ccc2c(Oc3ccccc3)nncc2c1` [Example 406, 4-methyl-3-(1-phenoxyphthalazin-6-yl)benzamide] returned an IC50 not above 5 µM.

Compound `Cc1ccc(C(=O)NC2CC2)cc1-c1ccc2c(N3C[C@@H](C)OC[C@@H]3C)nncc2c1` [Example 112, N-cyclopropyl-3-{1-[(2R,5S)-2,5-dimethylmorpholin-4-yl]phthalazin-6-yl}-4-methylbenzamide] returned a concentration for half-maximal inhibition (IC50) not above 5 µM.

For the compound `Cc1ccc(C(=O)NC2CC2)cc1-c1ccc2c(N3CCC[C@H]3CO)nncc2c1` [Example 151, N-cyclopropyl-3-{1-[(2S)-2-(hydroxymethyl)pyrrolidin-1-yl]phthalazin-6-yl}-4-methylbenzamide], the half-inhibitory concentration (IC50) is not above 5 µM.

`Cc1ccc(C(=O)NC2CC2)cc1-c1ccc2c(N3CCOC[C@@H]3C)nncc2c1` [Example 178, N-cyclopropyl-4-methyl-3-{1-[(3S)-3-methylmorpholin-4-yl]phthalazin-6-yl}benzamide]: the IC50 is not above 5 µM.

`Cc1ccc(C(=O)NC2CC2)cc1-c1ccc2c(N3CCN4C(=O)CC[C@H]4C3)nncc2c1` [Example 102, 3-{1-[(8aS)-6-oxohexahydropyrrolo[1,2-a]pyrazin-2(1H)-yl]phthalazin-6-yl}-N-cyclopropyl-4-methylbenzamide] came in with an IC50 not above 5 µM.

`COc1c(C)cccc1-c1nncc2cc(-c3cc(C(=O)NC4CC4)ccc3C)ccc12` [Example 201, N-cyclopropyl-3-[1-(2-methoxy-3-methylphenyl)phthalazin-6-yl]-4-methylbenzamide]: the IC50 is not above 5 µM.

As to `Cc1ccc(C(N)=O)cc1-c1ccc2c(N3CCNC[C@H]3C)nncc2c1` [Example 143, 4-methyl-3-{1-[(2R)-2-methylpiperazin-1-yl]phthalazin-6-yl}benzamide], the concentration for half-maximal inhibition (IC50) is not above 5 µM.

Regarding `O=C(O)Cc1ccc(-c2nncc3cc(Oc4ccc(F)cc4)ccc23)cc1` [Example 348, {4-[6-(4-fluorophenoxy)phthalazin-1-yl]phenyl}acetic acid], the IC50 was not above 5 µM.

As for `Cc1ccc(C(N)=O)cc1-c1ccc2c(Oc3ccc(F)cc3)nncc2c1` [Example 301, 3-[1-(4-fluorophenoxy)phthalazin-6-yl]-4-methylbenzamide], the IC50 is not above 5 µM.

As for `Cc1ccc(S(N)(=O)=O)cc1-c1ccc2c(N3CCOCC3)nncc2c1` [Example 106, 4-Methyl-3-(1-morpholinophthalazin-6-yl)benzenesulfonamide], the IC50 is not above 5 µM.

Take `Cc1ccc(C(=O)NC2CC2)cc1-c1ccc2c(N3CCC[C@@H]4CCCC[C@@H]43)nncc2c1` [Example 154, 3-{1-[(4aS,8aS)-octahydroquinolin-1(2H)-yl]phthalazin-6-yl}-N-cyclopropyl-4-methylbenzamide]: the IC50 was not above 5 µM.

`CCNC(=O)c1ccc(C)c(-c2ccc3c(N4CCOCC4)nncc3c2)c1` [Example 41, N-ethyl-4-methyl-3-(1-morpholinophthalazin-6-yl)benzamide] displayed a concentration for half-maximal inhibition (IC50) not above 5 µM.

Compound `COc1c(F)cccc1-c1nncc2cc(-c3cc(C(=O)NC4CC4)ccc3C)ccc12` [Example 248, N-cyclopropyl-3-[1-(3-fluoro-2-methoxyphenyl)phthalazin-6-yl]-4-methylbenzamide] showed an IC50 not above 5 µM.

The compound `Cc1ccc(C(N)=O)cc1-c1ccc2c(-c3ccccc3C)nncc2c1` [Example 176, 4-methyl-3-[1-(2-methylphenyl)phthalazin-6-yl]benzamide] had an IC50 not above 5 µM.

In turn, `Cc1ccc(C(=O)NC2CC2)cc1-c1ccc2c(OC3CCN(C)CC3)nncc2c1` [Example 319, N-cyclopropyl-4-methyl-3-{1-[(1-methylpiperidin-4-yl)oxy]phthalazin-6-yl}benzamide] gave an IC50 not above 5 µM.

For the compound `COc1nc(N(C)C)ncc1-c1nncc2cc(-c3cc(C(=O)NC4CC4)ccc3C)ccc12` [Example 197, N-cyclopropyl-3-{1-[2-(dimethylamino)-4-methoxypyrimidin-5-yl]phthalazin-6-yl}-4-methylbenzamide], the IC50 is not above 5 µM.

With `CC[C@H](C)Oc1nncc2cc(-c3cc(C(=O)NC4CC4)ccc3C)ccc12` [Example 302, N-cyclopropyl-4-methyl-3-(1-{[(1S)-1-methylpropyl]oxy}phthalazin-6-yl)benzamide], the half-maximal inhibitory concentration (IC50) is not above 5 µM.

For the compound `Cc1cc(C(=O)NC2CC2)sc1-c1ccc2c(N3CCOCC3)nncc2c1` [Example 46, N-cyclopropyl-4-methyl-5-(1-morpholinophthalazin-6-yl)thiophene-2-carboxamide], the IC50 is not above 5 µM.

The compound `Cc1ccc(C(N)=O)cc1-c1ccc2c(-c3cncnc3)nncc2c1` [Example 215, 4-methyl-3-(1-pyrimidin-5-ylphthalazin-6-yl)benzamide] displayed an IC50 not above 5 µM.

On to `COc1c(C)cccc1-c1nncc2cc(-c3cc(C(N)=O)ccc3C)ccc12` [Example 204, 3-[1-(2-methoxy-3-methylphenyl)phthalazin-6-yl]-4-methylbenzamide], for which the IC50 is not above 5 µM.

As for `Cc1ccc(C(=O)NC2CC2)cc1-c1ccc2c(N3CCN4CCC[C@H]4C3)nncc2c1` [Example 274, 3-{1-[(8aS)-hexahydropyrrolo[1,2-a]pyrazin-2(1H)-yl]phthalazin-6-yl}-N-cyclopropyl-4-methylbenzamide], the 50% inhibitory concentration (IC50) is not above 5 µM.

Regarding `Cc1ccccc1-c1ccc2c(N3CCOCC3c3ccc(F)cc3)nncc2c1` (stereo not shown) [Example 398, 1-[3-(4-fluorophenyl)morpholin-4-yl]-6-(2-methylphenyl)phthalazine], the IC50 was not above 5 µM.

`Cc1ccc(-c2nncc3cc(-c4cc(C(=O)NC5CC5)ccc4C)ccc23)cc1` [Example 131, N-cyclopropyl-4-methyl-3-[1-(4-methylphenyl)phthalazin-6-yl]benzamide] yielded an IC50 not above 5 µM.

As for `Cc1ccc(C(=O)NC2CC2)cc1-c1ccc2c(N(C)C)nncc2c1` [Example 187, N-cyclopropyl-3-[1-(dimethylamino)phthalazin-6-yl]-4-methylbenzamide], the IC50 is not above 5 µM.

As to `CCNC(=O)c1ccc(C)c(-c2ccc3c(C(C)C)nncc3c2)c1` [Example 363, N-ethyl-3-(1-isopropylphthalazin-6-yl)-4-methylbenzamide], the half-inhibitory concentration (IC50) was not above 5 µM.

As for `CNc1noc2c(-c3ccc4c(N5CCOC[C@@H]5C)nncc4c3)c(C)ccc12` [Example 397, N,6-dimethyl-7-(1-((S)-3-methylmorpholino)phthalazin-6-yl)benzo[d]isoxazol-3-amine], the IC50 is not above 5 µM.

Compound `COC(=O)c1ccccc1Oc1ccc2c(-c3ccccc3C)nncc2c1` [Example 342, methyl 2-{[1-(2-methylphenyl)phthalazin-6-yl]oxy}benzoate] yielded an IC50 not above 5 µM.

For the compound `Cc1ccc(C(=O)Nc2ccon2)cc1-c1ccc2c(N3CCOCC3)nncc2c1` [Example 108, N-(Isoxazol-3-yl)-4-methyl-3-(1-morpholinophthalazin-6-yl)benzamide], the 50% inhibitory concentration (IC50) is not above 5 µM.
